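How tested: cells in 96-well plates exposed to compound for 48 hours at five concentrations. The concentration for 50% growth inhibition is given as GI50. TGI: concentration producing complete growth inhibition.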
Tests used:
Assay in all cases: NCI tumour cell line growth inhibition, 48 h
COLO 205 colon = tested on: COLO 205 colon
786-0 renal = tested on: 786-0 renal
A549 NSCLC = tested on: A549 NSCLC
SN12C renal = tested on: SN12C renal
HCT-116 colon = tested on: HCT-116 colon
SW-620 colon = tested on: SW-620 colon
UO-31 renal = tested on: UO-31 renal
HCT-15 colon = tested on: HCT-15 colon
DU-145 prostate = tested on: DU-145 prostate
NCI-H522 lung = tested on: NCI-H522 lung

Structure (SMILES) | GI50 (COLO 205 colon) [µM] | TGI (COLO 205 colon) [µM] | GI50 (786-0 renal) [µM] | TGI (786-0 renal) [µM] | GI50 (A549 NSCLC) [µM] | TGI (A549 NSCLC) [µM] | GI50 (SN12C renal) [µM] | TGI (SN12C renal) [µM] | GI50 (HCT-116 colon) [µM] | TGI (HCT-116 colon) [µM] | GI50 (SW-620 colon) [µM] | TGI (SW-620 colon) [µM] | GI50 (UO-31 renal) [µM] | TGI (UO-31 renal) [µM] | GI50 (HCT-15 colon) [µM] | TGI (HCT-15 colon) [µM] | GI50 (DU-145 prostate) [µM] | TGI (DU-145 prostate) [µM] | GI50 (NCI-H522 lung) [µM] | TGI (NCI-H522 lung) [µM]
[CH3][Sn]([CH3])([CH3])[O][N+](=O)[O-] | > 10 | > 10 | 1.92 | 3.51 | > 10 | > 10 | 1.78 | 4.11 | 2.9 | > 10 | 2.06 | 4.8 | > 10 | > 10 | 2 | 4.13 | > 10 | > 10 | 1.64 | 3.07
O=C1C2C3C=CC(C2C(=O)N1CN1CCSCC1)C1C2C(=O)N(CN4CCSCC4)C(=O)C2C31 (stereo not drawn) | – | 97.8 | – | > 79.2 | 77.1 | > 100 | – | > 100 | – | > 55.9 | 50.5 | > 68.1 | – | > 100 | – | > 59.7 | 78.4 | – | 82.3 | > 100
N#CC1C(=O)NC(c2ccccc2[N+](=O)[O-])c2sc3c(F)cccc3c21 (stereo not drawn) | 8.05 | 58.4 | 33 | > 100 | 1.72 | 36.1 | 16.4 | > 96.3 | 0.138 | 11.9 | 0.366 | > 100 | 5.44 | 36.1 | 10.4 | 61.2 | 8.16 | 46.1 | 14.1 | 48
CN1CCN(Cc2ccc(NC(=O)c3cncc(C#Cc4cnc(N)c5cnccc45)c3)cc2C(F)(F)F)CC1 | 0.0982 | 6 | 0.314 | 7.73 | 0.511 | 7.79 | 0.167 | 5.86 | 0.142 | 1.74 | 0.182 | 2.62 | 0.42 | 1.31 | 0.721 | 6.31 | 0.214 | 6.21 | 0.226 | 9.45
Cn1c2ccccc2c2c(=O)n(CCCC(=O)OC(=NC3CCCCC3)NC3CCCCC3)c3c(-c4ccccc4)nnn3c21 | > 100 | > 100 | > 100 | > 100 | > 100 | > 100 | > 100 | > 100 | 91.8 | > 100 | > 100 | > 100 | > 100 | > 100 | > 100 | > 100 | > 100 | > 100 | 69.5 | > 100
Cc1nccc2c3ccc(OCc4cn(-c5ccc(Cl)cc5)nn4)cc3n(CC(C)C)c12 | 1.51 | 6.8 | 2.09 | 8.33 | 2.29 | 13 | 3.69 | > 33.3 | 1.3 | 5.65 | 3.33 | > 33.3 | 1.72 | 14 | 1.28 | 21.5 | 11.5 | > 33.3 | 4.17 | 15.5
CCCN1CCC(c2ccc(Nc3nc(Nc4cc(F)ccc4C(N)=O)c4cc[nH]c4n3)c(OC)c2)CC1 | 0.0183 | 1.78 | 3.07 | 7.52 | 0.154 | 4.68 | 3.62 | 8.55 | 0.178 | 3.61 | 0.099 | 3.04 | 2.14 | 6.54 | 0.54 | 15.1 | 1.02 | 4.92 | 3.42 | 6.69
CCCCCC[C@H](C)NC(=O)c1ccc(Nc2nc3ccccc3c3occc23)cc1 | 3.07 | 8.45 | 2.35 | 7.71 | 4.35 | > 100 | 24.5 | 97.3 | 2.14 | 6.43 | 3.57 | > 100 | 0.596 | 3.53 | 8.42 | 33 | 3.07 | 8.87 | 2.5 | 5.74
CN(C)c1ccc(N=C2C=CC(=O)c3ccccc32)cc1 | 2.06 | 4.15 | 15.2 | 32.5 | 1.82 | 3.89 | 2.54 | 9.28 | 2.88 | 13.3 | 1.68 | 3.42 | 2.28 | 16.6 | 2.36 | 17.7 | 1.74 | 3.13 | 1.97 | 4.51
C=CCc1c(O)c(C(=O)/C=C/c2ccccc2)c(OC)c2ccoc12 | 5.96 | 18.1 | 4.12 | 16.8 | 4.41 | 22.1 | 3.79 | 14.1 | 3.03 | 11.1 | 3.32 | 12.1 | 2.89 | 14.5 | 2.91 | 11.8 | 4.92 | 18.1 | 2.15 | 9.28
COc1cc(/C=C/C(=O)c2c(C)nc3ccccc3c2C)ccc1OCCCN1CCN(C(=O)c2ccco2)CC1 | 11 | 23 | 7.83 | 20.5 | 11.3 | 27.3 | 11 | 28.7 | 3.5 | 15.7 | 6.03 | 19.2 | 4 | 19.6 | 5.74 | 30.9 | 9.78 | 21.4 | 5.06 | 23.9
CN(C)c1ccc2nc(CC(O)(C(F)(F)F)C(F)(F)F)ccc2c1 | – | > 10 | – | > 10 | – | > 10 | – | > 10 | – | > 10 | – | > 10 | – | > 10 | – | > 10 | – | > 10 | – | > 10
CSc1ccc(C(=O)/C=C/c2ccccc2Cl)cc1 | 33.5 | > 100 | 13.1 | 27.6 | 15.1 | 30.5 | 17.3 | 32.7 | 2.08 | 3.96 | 4.95 | 28.7 | 2.31 | 5.05 | 7.73 | 28.9 | 13.9 | 29 | 10.9 | 33.1
O=c1c(Cl)cc2nc3ccccc3sc-2c1Cl | – | 38 | – | 45.8 | – | 40.9 | – | 31.9 | – | 32.5 | – | 34.9 | – | 29.1 | – | 32.3 | – | 25.8 | – | 25.9
CC1=C([Se]CC(OC(=O)[C@@H](CO)NC(=O)OC(C)(C)C)C(=O)NCCCCCC(=O)OCc2ccccc2)C(=O)c2ccccc2C1=O (stereo partly drawn) | 1.82 | 3.35 | 2.08 | 3.53 | 1.37 | 3.07 | 1.95 | 3.59 | 1.39 | 2.73 | 1.72 | 3.25 | 1.54 | 3.03 | 1.93 | 3.77 | 1.82 | 3.26 | 2.02 | 3.5
COc1ccc2c(c1OC(C)=O)C1=CC(=O)CCC13CCNC3C2 (stereo not drawn) | – | > 100 | – | > 100 | – | > 100 | – | > 100 | – | > 100 | – | > 100 | – | > 100 | – | > 100 | – | > 100 | – | > 100
C/C(=N/N=C(N)N)c1ccc(NC(=O)Nc2ccc(/C(C)=N/N=C(N)N)cc2)cc1 | 43.3 | > 100 | 10.7 | 30.1 | 19.4 | 54.8 | 14.2 | 45.7 | 28 | > 100 | 48.8 | > 100 | 40.8 | > 100 | 25.5 | > 77.6 | 11.2 | 40.1 | 7.14 | 28.8
CCn1ccc(NS(=O)(=O)c2ccc(N)cc2)nc1=O | > 100 | > 100 | > 100 | > 100 | > 100 | > 100 | > 100 | > 100 | > 100 | > 100 | > 100 | > 100 | > 100 | > 100 | > 100 | > 100 | > 100 | > 100 | > 100 | > 100
CC1(C)N=C(N)N=C(N)N1c1cccc(Br)c1 | 8.39 | > 100 | 0.093 | > 100 | 0.469 | > 100 | 4.09 | > 100 | 0.069 | > 100 | 0.216 | > 100 | 6.69 | > 100 | 1.42 | > 100 | 0.895 | > 100 | 4.29 | > 100
COc1ccc2c(c1)C(=O)c1c-2c(Nc2cccc(C(C)=O)c2)nc2ccccc12 | 37.9 | > 100 | 3.78 | 14 | 17.7 | 40.5 | 10.3 | 40.1 | 2.64 | 10.9 | 21.2 | > 100 | 15.4 | 45.2 | 24 | > 100 | 11.7 | 32.2 | 8.53 | 35.1
COCc1c(-c2ccc(NC(=O)Nc3cc(C(F)(F)F)ccc3F)c(F)c2)c2c(N)ncnn2c1CN1CCOCC1 | 1.05 | 2.71 | 2.76 | > 10 | 2.53 | > 10 | 1.39 | > 10 | 1.7 | > 10 | 2.58 | > 10 | 1.59 | > 10 | 1.74 | > 10 | 2.09 | > 10 | 1.76 | 4.05
O=C(O[C@H]1CCN2C[C@H]3C[C@H](CN4C(=O)CCC[C@H]34)[C@@H]2C1)c1ccc(O)cc1 | – | > 100 | – | > 100 | – | > 100 | – | > 100 | – | > 100 | – | > 100 | – | > 100 | – | > 100 | – | > 100 | – | > 100
Cc1ccc(S(=O)(=O)Nc2ccc(-c3cc(-c4cccc(F)c4)c(C#N)c(N)n3)cc2)cc1 | 2.18 | 4.48 | 1.71 | 3.12 | 3.11 | 15.7 | 2.2 | 7.11 | 1.69 | 3.23 | 2 | 4.4 | 1.32 | 2.59 | 1.88 | 4.86 | 2.33 | 5.45 | 1.69 | 4.91
Cc1cc(=O)oc2cc(OC/C=C3\CCC(=O)O3)ccc12 | 5.8 | 20.5 | 10.5 | 44.1 | 31.2 | > 91.4 | 15.2 | 34.9 | 8.38 | 24.6 | 5.56 | 28 | 12.8 | 26.3 | 10.6 | 23.9 | 5.31 | 22.9 | 7.82 | 23
Nc1ncnc2c1ccn2[C@@H]1O[C@H]([C@H](O)c2ccc(Cl)c(F)c2)[C@@H](O)[C@H]1O | > 100 | > 100 | > 100 | > 100 | > 100 | > 100 | > 100 | > 100 | > 100 | > 100 | > 100 | > 100 | 45.3 | > 100 | > 100 | > 100 | > 100 | > 100 | > 100 | > 100
FC(F)(F)c1cc(Nc2ccc3cc(OCCCN4CCOCC4)ccc3n2)ccc1Cl | 1.74 | 3.49 | 1.3 | 2.81 | 1.93 | 4.3 | 2.96 | 12.9 | 1.65 | 3.14 | 1.85 | 3.6 | 1.55 | 3.27 | 1.28 | 3.08 | 3.17 | 13.3 | 2.04 | 3.82
